The source of these data is US9821002B2, “Method for alleviating radiation injury with isorhamnetin-3-O-β-D-glucoside” (Sinotai Oncology Associate., Ltd., priority 2015, dated 2017).

In this assay the test system is NMuMG cells. As to the kind of experiment: Apoptosis assay (FITC Annexin V/PI) after X-ray irradiation. The class given is cell-based, mouse. The conditions noted are these: 2 h pretreatment, X-ray 15 Gy, 72 hours, mean ± SEM. The source says: Four groups of BNL CL.2 cells (i.e., a normal control group referred to as Normal Control Group 1-A, an X-ray control group referred to as X-Ray Control Group 1-A, and two experimental groups referred to as Experimental Groups 1-A to 2-A), and six groups of NMuMG cells (i.e., a normal control group referred to as Normal Control Group 1-B, an X-ray control group referred to as X-Ray Control Group 1-B, two isorhamnetin groups referred to as Isorhamnetin Groups 1 to 2, and two experimental groups referred to as Experimental Groups 1-B to 2-B), were prepared based on the procedure set forth in “Source and cultivation of cell lines” of “Experimental materials”. BNL CL.2 cells in each group were cultivated using 5 mL of a corresponding medium shown in Table 1 and a 6-cm Petri dish in an amount of 2×10^5 cells per dish. Likewise, NMuMG cells in each group were cultivated using 5 mL of a corresponding medium shown in Table 1 and a 6-cm Petri dish in an amount of 2.5×10^5 cells per dish. The cultivation was conducted in an incubator (37° C., 5% CO2) for 24 hours.
Subsequently, medium was replaced with fresh medium. The obtained cultures in Experimental Groups 1-A, 1-B, 2-A, and 2-B were pretreated with the stock solution of isorhamnetin-3-O-β-D-glucoside, and the obtained cultures in Isorhamnetin Groups 1 to 2 were pretreated with the stock solution of isorhamnetin.
The culture in each group was then cultivated in an incubator (37° C., 5% CO2) for two hours. The resultant culture was used for the following experiments in sections B to D.
The cultures in X-Ray Control Group 1-A, X-Ray Control Group 1-B, Isorhamnetin Group 1, Isorhamnetin Group 2, Experimental Group 1-A, Experimental Group 1-B, Experimental Group 2-A, and Experimental Group 2-B, prepared according to section A of “Experimental procedures” in this example, were subjected to X-ray irradiation using a linear accelerator at a dose of 15 Gy. The cultures in Normal Control Groups 1-A and 1-B received no X-ray irradiation treatment. The culture of BNL CL.2 cells in each group was cultivated using a 6-cm Petri dish in an incubator (37° C., 5% CO2) for 96 hours, and the culture of NMuMG cells in each group was cultivated using a 6-cm Petri dish in an incubator (37° C., 5% CO2) for 72 hours. 1 mL of trypsin-EDTA was added to the culture in each group so as to detach the cells from the bottom of the Petri dish. Following this, 1 mL of a fresh medium (corresponding to the medium described in Table 1) was added to neutralize the activity of the trypsin, and the resultant cell suspension was transferred to a centrifuge tube with a pipette, followed by centrifugation at 1200 rpm for three minutes. The supernatant was removed, and the cell pellet thus obtained was washed once with cold PBS (pH 7.4), followed by centrifugation at 1200 rpm for 3 minutes. The supernatant was removed, and 100 μL of cold Annexin V binding buffer (BD Pharmingen™) was added to sufficiently re-suspend the cell pellet thereby obtaining a cell suspension having a cell concentration of 1.0×10^6 cells/mL. Afterward, 5 μL of FITC Annexin V (BD Pharmingen™) and 5 μL of propidium iodide (PI) staining solution (BD Pharmingen™) were added to the obtained cell suspension, followed by mixing evenly and standing in the dark at 4° C. for 30 minutes so as to obtain stained cells.
Subsequently, the stained cells were analyzed using BD Accuri™ C6 flow cytometry, in which cells that could be stained with FITC Annexin V but not with PI (i.e., FITC Annexin V positive and PI negative) represented cells that were induced with early apoptosis; cells stained with both FITC Annexin V and PI (i.e., FITC Annexin V positive and PI positive) represented cells that were induced with late apoptosis; and cells that could not be stained with FITC Annexin V and PI (i.e., FITC Annexin V negative and PI negative) represented viable cells. The number of stained cells was calculated using BD Accuri™ C6 software. […]

On to `COc1cc(-c2oc3cc(O)cc(O)c3c(=O)c2O)ccc1O` [Isorhamnetin], for which the Apoptosis percentage is listed as 22.87 ± 1.33% (15 μM) and 22.13 ± 0.29% (30 μM).
